Measured values taken from ChEMBL document CHEMBL5321272 (J Med Chem, 2023).
The source made the active and inactive calls. No cut-off for these calls is given here.

Columns and labels:
hERG (KCNH2) = hERG (KCNH2) (Homo sapiens, UniProt Q12809); experiment: Inhibition of hERG expressed in HEK293 cells at 20 uM by whole cell patch clamp analysis; assay type: toxicity, cell-based; conditions: HEK293 cells expressing hERG
[1] = target: Mast/stem cell growth factor receptor Kit (Homo sapiens, UniProt P10721); experiment: Inhibition of c-KIT (unknown origin) using peptide substrate TK-S and ATP as substrate incubated for 1 hr by HTRF assay; assay type: toxicity
[2] = Selectivity ratio of IC50 for inhibition of c-KIT (unknown origin) to IC50 for inhibition of FLT3 D835Y mutant (unknown origin)
BaF3 [3] = experiment: Antiproliferative activity against mouse BaF3 cells harboring FLT3 D835V mutant assessed as reduction in cell viability incubated for 72 hrs by CellTiter 96 Aqueous One Solution Cell Proliferation Assay; assay type: functional, cell-based
BaF3 [4] = experiment: Antiproliferative activity against mouse BaF3 cells harboring FLT3 D835F mutant assessed as reduction in cell viability incubated for 72 hrs by CellTiter 96 Aqueous One Solution Cell Proliferation Assay; assay type: functional, cell-based
BaF3 [5] = experiment: Antiproliferative activity against mouse BaF3 cells harboring FLT3 F691L mutant assessed as reduction in cell viability incubated for 72 hrs by CellTiter 96 Aqueous One Solution Cell Proliferation Assay; assay type: functional, cell-based
[6] = Half life in ICR mouse at 10 mg/kg, po; assay type: ADME, organism-based; conditions: in vivo
[7] = Tmax in ICR mouse at 10 mg/kg, po; assay type: ADME, organism-based; conditions: in vivo
[8] = Cmax in ICR mouse at 10 mg/kg, po; assay type: ADME, organism-based; set-up: dose 10 mg/kg, route po; conditions: in vivo
[9] = AUC (last) in ICR mouse at 10 mg/kg, po; assay type: ADME, organism-based; set-up: dose 10 mg/kg, route po; conditions: in vivo
[10] = AUC (infinity) in ICR mouse at 10 mg/kg, po; assay type: ADME, organism-based; set-up: dose 10 mg/kg, route po; conditions: in vivo
[11] = MRT (infinity) in ICR mouse at 10 mg/kg, po; assay type: ADME, organism-based; conditions: in vivo
[12] = target: Receptor-type tyrosine-protein kinase FLT3 (Homo sapiens, UniProt P36888, D835Y)
Description: Inhibition of FLT3 D835Y mutant (unknown origin) using peptide substrate TK-S and ATP as substrate incubated for 1 hr by HTRF assay

[13] = target: T1, Serine/threonine-protein kinase Chk1 (Homo sapiens, UniProt O14757)
T1 sequence (O14757 whole entry): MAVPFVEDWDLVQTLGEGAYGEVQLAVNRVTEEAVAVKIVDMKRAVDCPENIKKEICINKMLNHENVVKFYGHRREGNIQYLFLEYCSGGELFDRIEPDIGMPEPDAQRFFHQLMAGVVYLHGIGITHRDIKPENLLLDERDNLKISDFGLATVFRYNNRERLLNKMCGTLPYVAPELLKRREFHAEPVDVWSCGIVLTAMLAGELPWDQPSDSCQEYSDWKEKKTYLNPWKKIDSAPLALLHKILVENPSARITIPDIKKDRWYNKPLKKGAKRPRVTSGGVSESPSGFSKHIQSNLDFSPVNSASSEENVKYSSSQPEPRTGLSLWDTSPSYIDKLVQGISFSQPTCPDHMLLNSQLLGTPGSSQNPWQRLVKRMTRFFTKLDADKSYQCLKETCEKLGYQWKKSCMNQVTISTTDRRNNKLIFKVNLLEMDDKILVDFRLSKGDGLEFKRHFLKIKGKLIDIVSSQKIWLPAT
Description: Inhibition of CHK1 (unknown origin) using peptide substrate S1 and ATP as substrate incubated for 1 hr by HTRF assay

MV4-11 = experiment: cells; conditions: Homo sapiens, MV4-11, 72 h
Description: Antiproliferative activity against human MV4-11 cells assessed as reduction in cell viability incubated for 72 hrs by CellTiter 96 Aqueous One Solution Cell Proliferation Assay

Sequence of Mast/stem cell growth factor receptor Kit (P10721 whole entry): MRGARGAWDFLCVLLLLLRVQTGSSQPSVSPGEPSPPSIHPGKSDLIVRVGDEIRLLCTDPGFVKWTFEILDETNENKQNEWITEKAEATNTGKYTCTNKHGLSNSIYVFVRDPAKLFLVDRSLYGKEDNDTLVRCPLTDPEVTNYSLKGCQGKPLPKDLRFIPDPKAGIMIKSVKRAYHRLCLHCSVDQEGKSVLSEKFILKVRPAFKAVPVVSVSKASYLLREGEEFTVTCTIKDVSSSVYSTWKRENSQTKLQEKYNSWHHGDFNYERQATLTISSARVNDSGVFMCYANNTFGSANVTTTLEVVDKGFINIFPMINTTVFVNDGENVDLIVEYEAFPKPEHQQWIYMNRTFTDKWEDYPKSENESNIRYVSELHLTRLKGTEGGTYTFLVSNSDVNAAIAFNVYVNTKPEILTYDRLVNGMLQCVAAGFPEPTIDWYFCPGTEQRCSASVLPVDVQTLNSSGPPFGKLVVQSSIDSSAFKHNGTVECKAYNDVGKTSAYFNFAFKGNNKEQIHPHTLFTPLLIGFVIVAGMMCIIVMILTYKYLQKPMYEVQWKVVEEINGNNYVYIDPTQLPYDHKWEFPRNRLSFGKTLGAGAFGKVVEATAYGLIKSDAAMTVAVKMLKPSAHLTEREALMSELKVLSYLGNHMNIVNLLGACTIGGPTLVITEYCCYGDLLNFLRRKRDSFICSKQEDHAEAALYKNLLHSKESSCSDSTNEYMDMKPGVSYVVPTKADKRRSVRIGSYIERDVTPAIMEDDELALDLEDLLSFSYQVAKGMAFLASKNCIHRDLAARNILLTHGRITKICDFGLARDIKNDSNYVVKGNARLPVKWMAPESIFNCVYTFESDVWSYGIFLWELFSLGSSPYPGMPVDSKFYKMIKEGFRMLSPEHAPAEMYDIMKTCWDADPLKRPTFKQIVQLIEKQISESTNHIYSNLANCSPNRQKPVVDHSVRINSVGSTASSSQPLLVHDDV
Sequence of hERG (KCNH2) (Q12809 whole entry): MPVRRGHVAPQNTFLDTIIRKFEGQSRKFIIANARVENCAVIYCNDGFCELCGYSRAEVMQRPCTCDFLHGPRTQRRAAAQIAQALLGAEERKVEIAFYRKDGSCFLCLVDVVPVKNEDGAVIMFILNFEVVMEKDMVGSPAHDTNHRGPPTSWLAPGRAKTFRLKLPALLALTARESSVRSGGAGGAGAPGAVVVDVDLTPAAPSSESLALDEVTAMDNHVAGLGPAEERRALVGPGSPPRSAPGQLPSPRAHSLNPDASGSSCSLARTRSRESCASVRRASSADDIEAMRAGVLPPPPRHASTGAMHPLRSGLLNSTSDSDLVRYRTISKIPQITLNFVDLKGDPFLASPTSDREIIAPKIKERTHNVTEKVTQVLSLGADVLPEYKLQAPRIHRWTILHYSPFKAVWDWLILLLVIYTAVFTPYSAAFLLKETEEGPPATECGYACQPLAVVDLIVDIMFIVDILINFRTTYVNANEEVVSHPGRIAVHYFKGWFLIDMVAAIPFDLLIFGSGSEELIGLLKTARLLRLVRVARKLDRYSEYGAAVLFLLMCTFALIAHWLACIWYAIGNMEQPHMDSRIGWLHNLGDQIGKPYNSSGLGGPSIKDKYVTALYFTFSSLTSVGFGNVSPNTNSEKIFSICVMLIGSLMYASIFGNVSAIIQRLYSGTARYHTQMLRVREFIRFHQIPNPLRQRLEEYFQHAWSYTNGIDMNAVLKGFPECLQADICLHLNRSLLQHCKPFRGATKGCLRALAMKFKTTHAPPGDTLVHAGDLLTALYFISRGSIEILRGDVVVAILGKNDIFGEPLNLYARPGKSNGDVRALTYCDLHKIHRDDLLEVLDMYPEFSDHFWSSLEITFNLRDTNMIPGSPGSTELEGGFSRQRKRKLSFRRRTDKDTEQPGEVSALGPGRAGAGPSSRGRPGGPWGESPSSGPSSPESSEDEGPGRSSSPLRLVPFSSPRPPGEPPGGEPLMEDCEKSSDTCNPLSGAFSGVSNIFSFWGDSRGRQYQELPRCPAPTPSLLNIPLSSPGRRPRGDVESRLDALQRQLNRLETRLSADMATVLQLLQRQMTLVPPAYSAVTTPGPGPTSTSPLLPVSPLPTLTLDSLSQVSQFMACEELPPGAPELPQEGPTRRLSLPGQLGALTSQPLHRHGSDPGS

## CC(C)(O)C(=O)N1Cc2ccc(Nc3ncc(C(F)(F)F)c(N[C@H]4CC[C@@H](N)CC4)n3)cc2C1
hERG (KCNH2)
  inhibition at 20 µM: 17.5%
[1]
  IC50: 3090 nM
[2]
  Ratio IC50: 2290
BaF3 [3]
  Activity: Active
BaF3 [4]
  Activity: Active
BaF3 [5]
  Activity: Active
[6]
  half-life: 0.63 h
[7]
  Tmax: 2 h
[8]
  Cmax: 263 ng/mL
[9]
  AUC(0-t): 577 ng·h/mL
[10]
  AUC(0-inf): 604 ng·h/mL
[11]
  MRT inf: 1.92 h
[12]
  IC50: 1.35 nM
[13]
  IC50: 13.5 nM
MV4-11
  IC50: 0.5 nM

## N[C@H]1CC[C@@H](Nc2nc(Nc3ccc4c(c3)CCN(C(=O)CO)C4)ncc2C(F)(F)F)CC1
hERG (KCNH2)
  inhibition at 20 µM: 10.4%
[1]
  IC50: 2030 nM
[2]
  Ratio IC50: 4420
BaF3 [3]
  Activity: Active
BaF3 [4]
  Activity: Active
BaF3 [5]
  Activity: Active
[6]
  half-life: 2.3 h
[7]
  Tmax: 1 h
[8]
  Cmax: 162 ng/mL
[9]
  AUC(0-t): 340 ng·h/mL
[10]
  AUC(0-inf): 411 ng·h/mL
[11]
  MRT inf: 3.43 h
[12]
  IC50: 0.46 nM
[13]
  IC50: 17.6 nM
MV4-11
  IC50: 0.28 nM

## CC(C)(O)C(=O)N1CCc2ccc(Nc3ncc(C(F)(F)F)c(N[C@H]4CC[C@@H](N)CC4)n3)cc2C1
hERG (KCNH2)
  inhibition at 20 µM: 28.1%
[1]
  IC50: 8910 nM
[2]
  Ratio IC50: 4030
BaF3 [3]
  Activity: Active
BaF3 [4]
  Activity: Active
BaF3 [5]
  Activity: Active
[6]
  half-life: 9.08 h
[7]
  Tmax: 0.25 h
[8]
  Cmax: 4.06 ng/mL
[9]
  AUC(0-t): 18.6 ng·h/mL
[10]
  AUC(0-inf): 57.5 ng·h/mL
[11]
  MRT inf: 13.9 h
[12]
  IC50: 2.21 nM
[13]
  IC50: 14 nM
MV4-11
  IC50: 0.93 nM

## CC(=O)N1CCc2cc(Nc3ncc(C(F)(F)F)c(N[C@H]4CC[C@@H](N)CC4)n3)ccc2C1
hERG (KCNH2)
  inhibition at 20 µM: 33.2%
[1]
  IC50: 1080 nM
[2]
  Ratio IC50: 1240
BaF3 [3]
  Activity: Active
BaF3 [4]
  Activity: Active
BaF3 [5]
  Activity: Active
[6]
  half-life: 0.81 h
[7]
  Tmax: 2 h
[8]
  Cmax: 555 ng/mL
[9]
  AUC(0-t): 1080 ng·h/mL
[10]
  AUC(0-inf): 1100 ng·h/mL
[11]
  MRT inf: 2.22 h
[12]
  IC50: 0.87 nM
[13]
  IC50: 7.6 nM
MV4-11
  IC50: 0.07 nM

## CC(C)(O)CC(=O)N1Cc2ccc(Nc3ncc(C(F)(F)F)c(N[C@H]4CC[C@@H](N)CC4)n3)cc2C1
hERG (KCNH2)
  inhibition at 20 µM: 19.3%
[1]
  IC50: 2460 nM
[2]
  Ratio IC50: 2200
BaF3 [3]
  Activity: Active
BaF3 [4]
  Activity: Active
BaF3 [5]
  Activity: Active
[6]
  half-life: 0.81 h
[7]
  Tmax: 1 h
[8]
  Cmax: 42.5 ng/mL
[9]
  AUC(0-t): 99.6 ng·h/mL
[10]
  AUC(0-inf): 104 ng·h/mL
[11]
  MRT inf: 1.67 h
[12]
  IC50: 1.12 nM
[13]
  IC50: 12.5 nM
MV4-11
  IC50: 0.48 nM

## C[C@@H](O)C(=O)N1CCc2cc(Nc3ncc(C(F)(F)F)c(N[C@H]4CC[C@@H](N)CC4)n3)ccc2C1
hERG (KCNH2)
  inhibition at 20 µM: 14.6%
[1]
  IC50: 1800 nM
[2]
  Ratio IC50: 1440
BaF3 [3]
  Activity: Active
BaF3 [4]
  Activity: Active
BaF3 [5]
  Activity: Active
[6]
  half-life: 0.96 h
[7]
  Tmax: 2 h
[8]
  Cmax: 80.1 ng/mL
[9]
  AUC(0-t): 220 ng·h/mL
[10]
  AUC(0-inf): 226 ng·h/mL
[11]
  MRT inf: 2.05 h
[12]
  IC50: 1.25 nM
[13]
  IC50: 10.8 nM
MV4-11
  IC50: 0.21 nM

## CC(=O)N1Cc2ccc(Nc3ncc(C(F)(F)F)c(N[C@H]4CC[C@@H](N)CC4)n3)cc2C1
hERG (KCNH2)
  inhibition at 20 µM: 28.3%
[1]
  IC50: 2240 nM
[2]
  Ratio IC50: 1370
BaF3 [3]
  Activity: Active
BaF3 [4]
  Activity: Active
BaF3 [5]
  Activity: Active
[6]
  half-life: 1.21 h
[7]
  Tmax: 2 h
[8]
  Cmax: 32 ng/mL
[9]
  AUC(0-t): 97.8 ng·h/mL
[10]
  AUC(0-inf): 103 ng·h/mL
[11]
  MRT inf: 2.29 h
[12]
  IC50: 1.63 nM
[13]
  IC50: 13.1 nM
MV4-11
  IC50: 0.34 nM
